# In patent publication US20110300198A1, “HYDROCOLLOID - ESSENTIAL OIL PATCHES” (priority 2010, published 2011):
# Counter-ions that a name gives are not always drawn. Marks after values point to notes of the source that are not given here.
# Experiments:
# [1] = In-vivo experiment with HP-5 column, constituents in blood; set-up: species or system rat; settings: male, Sprague-Dawley, rat, in vivo
# Description: (§1) Male Sprague-Dawley rats, weighing 300-350 g, were used in the studies (Harlan, Rehovot, Israel). The experimental protocols were approved by the Hebrew University of Jerusalem Committee on the Use and Care of Animals. Rats were maintained under specified-pathogen-free (SPF) conditions and were allowed to acclimate to the environment for at least 7 days before their use in the study. Rats were anesthetized and the fur on their stomach shaved prior to exposure. Gum karaya patches with and without lavender essential oil were applied to the rat's stomach skin. Each rat was housed in an individual cage in order to prevent oral contamination of the essential oil by one rat eating another's patch. Blood samples (0.5 ml) were taken at 0, 12, 24, 36, 48 and 60 h from a nick at the tip of tail to determine contents of essential-oil components. Rats were restrained and the tail was gently massaged to facilitate blood collection. Blood samples were collected in vials containing 0.1 ml heparin (100 kU, Sigma). A 10-μl volume of aqueous linalyl isovalerate stock solution was added as an internal standard to each blood sample and samples were stored at −80° C. After 60 h, patches were removed and the application site was wiped with 70% alcohol. Animals were sacrificed and the patch of stomach skin to which the essential oil patch had been applied was removed and minced into small pieces. The skin pieces were placed in 1 ml of ethanol containing linalyl isovalerate as the internal standard and sonicated for 30 min after heating to 50° C. A 10-μl aliquot was then injected straight into the gas chromatograph. A urine sample (0.5 ml) was obtained from the bladder immediately after sacrifice. Urine samples were similarly analyzed by gas chromatography (GC).
# Blood (0.5 ml) or phosphate buffer (0.5 ml) was collected at t=0, 12, 24, 36, 48 and 60 h. Blood samples were placed in Eppendorf heparin-coated glass vials (Agilent) by heparin-washed syringe, which were sealed with septa and screw caps. Each vial contained 100 μl of heparin and blood samples were frozen at −80° C. for storage. Prior to analysis, the blood or phosphate buffer was thawed to room temperature, a 10-μl volume of internal standards (6.5 mg linalyl isovalerate and 6.5 mg geranyl formate in 25 ml acetonitrile) was added to the vial and then the mixture was vortexed. The vials were tightly capped using a clear cap with septum. The septa were pre-punctured immediately before analysis using a needle to facilitate the insertion of the fiber sheath. The fiber sheath was inserted through the septum, and positioned to expose the fiber in the center of the headspace. The vial was placed on a heating block to maintain temperature at a constant 50° C. and the solid-phase microextraction (SPME) assembly was clamped securely. Absorption time was 30 min. No stirring was required. After absorption, the SPME fiber sheath was immediately transferred to the GC injector for desorption for 5 min and GC analysis.
# GC was performed on an Agilent 7890A gas chromatograph equipped with a split/splitless capillary injector, flame ionization detection (FID) system and GC Chem Station (Version B.03.01; Agilent Technologies 2007). Chromatography was carried out on a WAX or HP-5 column (30 m×0.32 mm×0.25 μm). The GC operating conditions were: splitless or split 1:40 injector 240° C., oven 50° C. for 1 min and then 10° C. min^−1 to 160° C., then 25° C. min^−1 to 240° C. and held for 6 min; the carrier gas was hydrogen.
# In this experiment, patches containing lavender essential oil were adhered to the abdomen area. Patches without essential oil served as blanks. […] Detection under splitless conditions facilitated the detection of linalyl acetate, linalool, camphor, borneol and α-terpineol, the latter two being additional constituents detected only under these conditions. High concentrations of linalool, borneol and camphor were detected, in comparison to low levels of terpeneol and linalyl acetate. […]
# [2] = Decomposition of internal standards in blood and skin extract (GC, GC-MS); assay type: in vitro ADME, rat; settings: for Stability in the blood: GC-MS
# Protocol: Linalyl isovalerate and geranyl formate were tested for their suitability as internal standards for linalool and linalyl acetate using headspace (HS)-SPME. Linalyl isovalerate was chosen as the most appropriate internal standard on the basis of area formed under the peak. A stock solution of linalyl isovalerate in acetonitrile (25 mg L^−1) was further diluted with acetonitrile to produce an aqueous solution of linalyl isovalerate (5 mg L^−1). A 10-μl volume of the aqueous linalyl isovalerate stock solution was added as the internal standard to each sample. Standard was prepared from 0.5 ml of blank blood, 10 μl internal standard (0.0026 mg linalyl isovalerate in 25 ml acetonitrile) and an appropriate dilution of lavender oil in 10 μl acetonitrile. Lavender oil was first dissolved in acetonitrile (625 mg L^−1) and further diluted with acetonitrile to make intermediate standards (0.5, 1, 5, 25 and 125 mg L^−1). The calibration curves were plotted using the peak area ratio of linalool (the main constituent of lavender oil) and linalyl isovalerate vs. linalool concentration. A standard stock solution of lavender oil (625 mg L^−1) was prepared in acetonitrile. Calibration standards for determination of linear dynamic range were prepared by serial dilutions with acetonitrile. For quantitative analysis of lavender oil in the blood, working standard solutions containing 0.5, 1, 5, 25 and 125 mg L^−1 of lavender were prepared by dilution of the 625 mg L^−1 solution with acetonitrile. […] The compounds absorbed on the fiber were detached and analyzed by exposing the fiber for 5 min in the injection port.
# Two standards were checked for their suitability to this study: linalyl isovalerate and geranyl formate. […] Thus, although it is not possible to quantify linalool since the lavender essential oil may not be its only source, it is possible to quantify other components of lavender, and linalyl isovalerate was chosen to serve as the standard in the blood.
# [3] = cited from earlier work
# [4] = Preliminary in-vivo experiment, constituents in blood (GC, WAX column); set-up: species or system rat; settings: rat, in vivo
# [5] = Ex-vivo transfer of essential-oil constituents through the skin in Franz diffusion cells; assay type: in vitro ADME, rat; settings: for Accumulated concentration transferred through the skin: from gum karaya-Lavandula angustifolia essential oil patch (7.5% oil); for Accumulated concentration diffused through the skin: mixture of Lavandula angustifolia essential oil and almond oil rubbed on the skin
# Protocol: Ex-vivo release studies were performed in Franz diffusion cells (FCs) (PermeGear, Hellertown, Pa.). Stomach skin pieces (1.2 cm×1.2 cm) from a male rat, which were stored in the freezer for 1 month, were thawed at room temperature and placed in glass FCs. The surface area for absorption was 0.64 cm2. The FCs were thermoregulated with a water jacket at 32° C. The 4.5-ml volume of the receptor chamber of the FC was filled with a receptor solution containing 5% (w/v) bovine serum albumin (BSA) diluted with phosphate buffer pH 7.4. […] The receptor solution was continuously agitated with a magnetic stirrer. During the experiments, the donor compartments and sampling arms were sealed to prevent evaporation. The fluid in the receptor chamber was removed after different periods of time (0, 6, 12, 24, 36 and 48 h) and replaced with fresh phosphate buffer solution. Samples were stored at 4° C. after sampling, prior to analysis. Samples were analyzed in a gas chromatograph (Agilent Technologies, Santa Clara, Calif.) with a WAX 30 m×0.32 mm×0.25 μm (Agilent) column.
# Transdermal delivery of essential-oil components through rat skin from both lavender essential oil, which includes a high proportion of terpenoids, and Valencia orange essential oil, which includes a considerable amount of terpene, entrapped within gum-karaya-based patches, was examined. In addition to the regular patch adhered to the skin to be tested for essential-oil delivery by the traditional FCs and by in vivo tests (detailed below), another experiment was performed in which the skin was smeared with an almond-essential oil mixture, in order to partially imitate the situation in which the skin is massaged in an aromatherapy session. All experiments were conducted at ambient temperature and the inclusion of the essential oil as part of the almond oil-essential oil mixture (for the massage-like simulation) was equal in quantity and proportion to the inclusion of essential oil within the patch.
# [6] = In-vivo experiment with WAX column, constituents in blood; set-up: species or system rat; settings: 7.5% lavender oil patch on abdomen; split injection
# Description: as §1, with “After 60 h, patches were removed and the application site was wiped with 70% alcohol. Animals were sacrificed and the patch of stomach skin to which the essential oil patch had been applied was removed and minced into small pieces. The skin pieces were placed in 1 ml of ethanol containing linalyl isovalerate as the internal standard and sonicated for 30 min after heating to 50° C. A 10-μl aliquot was then injected straight into the gas chromatograph. A urine sample (0.5 ml) was obtained from the bladder immediately after sacrifice.” left out, “(GC). […]” for “(GC).”
# Patches that included lavender essential oil were adhered to the abdomen skin for 60 h. […] Between 12 and 36 h, a similar, non-significant change in levels was detected. […]
# [7] = cited from earlier work; remark: listed apart in the source
smiles,measurement,setting,value
"CC1(C)C2CCC1(C)C(O)C2 (stereo not drawn) [borneol, Borneol]",concentration at 60 h,[1],31 ng/mL
"CC1=CCC(C(C)(C)O)CC1 (stereo not drawn) [α-Terpeneol, α-Terpineol]",Level in blood from 12 h onwards,[1],5 to 9 ng/mL
C=CC(C)(CCC=C(C)C)OC(=O)CC(C)C (stereo not drawn) [linalyl isovalerate],Stability in the blood,[2],decomposes in the blood
same,Stability in the skin extract,[2]; skin with essential oil-containing patch,did not decompose
CC12CCC(CC1=O)C2(C)C (stereo not drawn) [Camphor],Log P,[3],about 3
same,Detection in blood,[4],No levels of camphor were detected
same,% diffused (of initial amount of entrapped essential oil),"[5]; Almond-lavandula mixture, 0 h",0.00^a %
same,% diffused (of initial amount of entrapped essential oil),"[5]; Almond-lavandula mixture, 6 h",0.01 ± 0.01^a %
same,% diffused (of initial amount of entrapped essential oil),"[5]; Almond-lavandula mixture, 12 h",1.15 ± 1.26^a %
same,% diffused (of initial amount of entrapped essential oil),"[5]; Almond-lavandula mixture, 24 h",2.28 ± 0.08^a %
same,% diffused (of initial amount of entrapped essential oil),"[5]; Lavandula patch, 0 h",0.00^a %
same,% diffused (of initial amount of entrapped essential oil),"[5]; Lavandula patch, 6 h",0.70 ± 0.04^b %
same,% diffused (of initial amount of entrapped essential oil),"[5]; Lavandula patch, 12 h",1.02 ± 0.01^c %
same,% diffused (of initial amount of entrapped essential oil),"[5]; Lavandula patch, 24 h",2.10 ± 0.32^d %
same,Accumulated concentration transferred through the skin,[5]; 6 h,0.51 ± 0.33^a mg/L
same,Accumulated concentration transferred through the skin,[5]; 12 h,0.74 ± 0.02^b mg/L
same,Accumulated concentration transferred through the skin,[5]; 24 h,1.53 ± 0.13^c mg/L
same,Accumulated concentration diffused through the skin,[5]; 6 h,0.01 ± 0.03^a mg L^−1
same,Accumulated concentration diffused through the skin,[5]; 12 h,0.89 ± 0.98^a mg L^−1
same,Accumulated concentration diffused through the skin,[5]; 24 h,1.78 ± 0.06^a mg L^−1
same,Calculated steady-state flux,[5]; rubbing in a mixture with almond oil,5.7×10^−4 mg.cm^−2 h^−1
same,Calculated steady-state flux,[5]; transferred from a lavender essential oil patch,4.3×10^−4 mg.cm^2 h^−1
same,concentration at 60 h,[1],35 ng/mL
same,Level in blood after 60 h,[6],no traces
same,Solubility in water,[7],relatively high
CC(C)=CCC/C(C)=C/COC=O [geranyl formate],Stability in the blood,[2],decomposes in the blood
C=C(C)[C@H]1CC=C(C)CC1 [d-Limonene],Log P,[3],about 4
